{"source": "ChEMBL document CHEMBL5226304", "about": "“Fused-azepinones: Emerging scaffolds of medicinal importance” (Eur J Med Chem, 2021)", "key": {"P388": {"system": "P388", "test": "Cytotoxicity against mouse P388 cells", "format": "functional", "settings": "read-out: ED50 (the source's name)"}, "HepG2": {"system": "HepG2", "test": "Cytotoxicity against human HepG2 cells by MTT assay", "format": "functional, cell-based"}, "Tubulin": {"biological_target": "Tubulin", "test": "Inhibition of tubulin polymerization (unknown origin)", "format": "protein-complex assay, Homo sapiens"}, "MOLT-3": {"system": "MOLT-3", "test": "Cytotoxicity against human MOLT-3 cells by MTT assay", "format": "functional, cell-based"}, "Rattus norvegicus [1]": {"system": "Rattus norvegicus", "test": "Antiarthritic activity in adjuvant-induced arthritis rat model assessed as reduction in paw swelling at 20 mg/kg, ip administered for day 6 to 10 post adjuvant measured on day 16 to 20 relative to control", "format": "functional"}, "[2]": {"biological_target": "Dual specificity mitogen-activated protein kinase kinase 1 (Homo sapiens, UniProt Q02750)", "sequence (Q02750 whole entry)": "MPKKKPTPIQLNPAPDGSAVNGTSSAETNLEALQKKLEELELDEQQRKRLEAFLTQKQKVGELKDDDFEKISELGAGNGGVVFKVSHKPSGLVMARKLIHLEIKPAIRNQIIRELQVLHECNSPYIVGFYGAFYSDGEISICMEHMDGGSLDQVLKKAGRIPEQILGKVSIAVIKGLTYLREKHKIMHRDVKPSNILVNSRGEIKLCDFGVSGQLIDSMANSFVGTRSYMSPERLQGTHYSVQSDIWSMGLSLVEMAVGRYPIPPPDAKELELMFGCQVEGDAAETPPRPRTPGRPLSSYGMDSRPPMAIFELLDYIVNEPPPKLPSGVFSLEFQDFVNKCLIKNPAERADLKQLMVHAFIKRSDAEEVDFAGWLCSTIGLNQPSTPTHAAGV", "test": "Inhibition of MEK1 (unknown origin)"}, "Protein kinase C (PKC)": {"biological_target": "Protein kinase C (PKC)", "test": "Inhibition of Protein kinase C (unknown origin)", "format": "protein assay, Homo sapiens"}, "Rattus norvegicus [3]": {"system": "Rattus norvegicus", "test": "Antiarthritic activity in adjuvant-induced arthritis rat model assessed as reduction in paw swelling at 10 mg/kg, ip administered for day 6 to 10 post adjuvant measured on day 16 to 20 relative to control", "format": "functional"}, "L5178Y": {"system": "L5178Y", "test": "Cytotoxicity against mouse L5178Y cells by MTT assay", "format": "functional, cell-based"}, "[4]": {"biological_target": "Cyclin-dependent kinase 5/CDK5 activator 1 (Homo sapiens, UniProt Q00535)", "sequence (Q00535 whole entry)": "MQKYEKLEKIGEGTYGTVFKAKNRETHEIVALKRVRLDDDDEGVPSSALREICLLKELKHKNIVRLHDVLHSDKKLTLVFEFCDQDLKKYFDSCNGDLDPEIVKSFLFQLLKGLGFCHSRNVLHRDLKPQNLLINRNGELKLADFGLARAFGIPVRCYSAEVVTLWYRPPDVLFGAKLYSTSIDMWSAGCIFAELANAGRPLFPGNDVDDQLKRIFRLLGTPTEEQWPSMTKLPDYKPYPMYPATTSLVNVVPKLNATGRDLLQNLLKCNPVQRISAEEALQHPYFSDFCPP", "sequence (Q15078 whole entry, further chain)": "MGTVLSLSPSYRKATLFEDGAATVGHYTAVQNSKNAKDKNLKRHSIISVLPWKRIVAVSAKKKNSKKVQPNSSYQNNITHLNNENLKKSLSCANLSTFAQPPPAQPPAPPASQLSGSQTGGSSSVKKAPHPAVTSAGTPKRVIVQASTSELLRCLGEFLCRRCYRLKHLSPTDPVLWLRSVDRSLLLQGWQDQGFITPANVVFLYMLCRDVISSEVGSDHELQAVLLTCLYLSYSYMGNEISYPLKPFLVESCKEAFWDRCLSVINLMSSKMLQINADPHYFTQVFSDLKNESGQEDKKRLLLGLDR", "test": "Inhibition of CDK5/p25 (unknown origin)", "format": "protein-complex assay"}, "[5]": {"biological_target": "Cyclin-dependent kinase 1/cyclin B (Homo sapiens, UniProt P06493)", "test": "Inhibition of CDK1/Cyclin B (unknown origin) in presence of gamma32P-ATP by scintillation counter analysis", "format": "protein-complex assay"}, "Homo sapiens": {"species": "Homo sapiens", "test": "Selectivity ratio of IC50 for Chk1 (unknown origin) to IC50 for (unknown origin)"}, "[6]": {"test": "Inhibition of MAPKK (unknown origin)", "design": "species or system Homo sapiens"}, "[7]": {"biological_target": "Mitogen-activated protein kinase 3 (Homo sapiens, UniProt P27361)", "sequence (P27361 whole entry)": "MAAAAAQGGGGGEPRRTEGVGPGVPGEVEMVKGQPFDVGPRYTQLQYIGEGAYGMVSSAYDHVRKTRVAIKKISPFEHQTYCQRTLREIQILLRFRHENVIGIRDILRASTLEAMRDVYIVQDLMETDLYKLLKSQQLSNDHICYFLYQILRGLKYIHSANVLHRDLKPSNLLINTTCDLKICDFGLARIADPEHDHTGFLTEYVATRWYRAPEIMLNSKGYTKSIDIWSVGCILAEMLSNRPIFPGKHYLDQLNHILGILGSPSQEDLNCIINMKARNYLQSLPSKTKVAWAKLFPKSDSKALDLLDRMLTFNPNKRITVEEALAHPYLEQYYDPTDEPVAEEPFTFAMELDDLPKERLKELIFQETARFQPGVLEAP", "test": "Inhibition of Erk1 (unknown origin)"}, "[8]": {"system": "Human immunodeficiency virus 1", "test": "Antiviral activity against HIV1 assessed as inhibition of LC5-RIC cells infection at 3.1 uM relative to control", "format": "functional"}, "CDK3/Cyclin E": {"biological_target": "CDK3/Cyclin E (Homo sapiens, UniProt Q00526)", "sequence (P24864 whole entry)": "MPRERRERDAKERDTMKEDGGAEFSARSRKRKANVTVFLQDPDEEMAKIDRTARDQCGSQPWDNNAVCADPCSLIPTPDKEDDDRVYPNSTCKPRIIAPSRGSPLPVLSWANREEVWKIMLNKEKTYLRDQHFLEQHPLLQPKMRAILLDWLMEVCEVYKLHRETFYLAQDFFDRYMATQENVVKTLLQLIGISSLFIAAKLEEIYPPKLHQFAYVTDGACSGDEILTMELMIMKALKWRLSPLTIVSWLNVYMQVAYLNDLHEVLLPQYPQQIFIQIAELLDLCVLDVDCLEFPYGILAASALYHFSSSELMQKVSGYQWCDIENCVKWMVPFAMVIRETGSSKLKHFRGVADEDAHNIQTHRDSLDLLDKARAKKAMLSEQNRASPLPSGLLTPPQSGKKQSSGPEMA", "sequence (Q00526 whole entry)": "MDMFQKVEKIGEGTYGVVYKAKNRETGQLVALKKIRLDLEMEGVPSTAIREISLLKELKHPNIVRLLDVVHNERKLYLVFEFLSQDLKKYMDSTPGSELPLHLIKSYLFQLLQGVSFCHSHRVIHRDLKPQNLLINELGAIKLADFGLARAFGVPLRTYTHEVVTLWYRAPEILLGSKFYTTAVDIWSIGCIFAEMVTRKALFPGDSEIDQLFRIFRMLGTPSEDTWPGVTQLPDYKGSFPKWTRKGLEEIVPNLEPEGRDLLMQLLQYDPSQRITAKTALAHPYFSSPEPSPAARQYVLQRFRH", "test": "Inhibition of CDK3/Cyclin E (unknown origin)", "format": "protein-complex assay"}, "[9]": {"test": "Inhibition of cGMP-dependent protein kinase (unknown origin)", "design": "species or system Homo sapiens"}, "Casein kinase I": {"biological_target": "Casein kinase I", "test": "Inhibition of CK1 (unknown origin)", "format": "protein assay, Homo sapiens"}, "Casein kinase 2": {"biological_target": "Casein kinase 2 (Homo sapiens, UniProt P67870+P68400+P19784+Q8NEV1)", "test": "Inhibition of CK2 (unknown origin)", "format": "protein assay"}, "CDK6/cyclin D2": {"biological_target": "CDK6/cyclin D2 (Homo sapiens, UniProt P30279+Q00534)", "sequence (Q00534 whole entry)": "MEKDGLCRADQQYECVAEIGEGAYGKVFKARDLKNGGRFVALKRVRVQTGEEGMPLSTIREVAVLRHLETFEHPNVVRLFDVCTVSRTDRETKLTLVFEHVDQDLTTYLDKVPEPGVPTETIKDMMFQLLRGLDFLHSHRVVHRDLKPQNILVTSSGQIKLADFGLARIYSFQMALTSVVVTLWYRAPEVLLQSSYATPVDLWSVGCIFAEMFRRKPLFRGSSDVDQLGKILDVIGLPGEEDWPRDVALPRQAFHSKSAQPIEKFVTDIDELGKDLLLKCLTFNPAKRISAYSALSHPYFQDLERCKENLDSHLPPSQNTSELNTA", "sequence (P30279 whole entry)": "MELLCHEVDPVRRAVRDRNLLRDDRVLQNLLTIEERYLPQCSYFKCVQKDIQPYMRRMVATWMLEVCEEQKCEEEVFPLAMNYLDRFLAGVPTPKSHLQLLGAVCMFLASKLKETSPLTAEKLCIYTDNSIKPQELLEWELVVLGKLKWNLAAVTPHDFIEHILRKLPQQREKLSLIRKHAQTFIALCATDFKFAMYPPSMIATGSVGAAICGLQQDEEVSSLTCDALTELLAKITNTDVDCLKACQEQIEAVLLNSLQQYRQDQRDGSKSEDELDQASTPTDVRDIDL", "test": "Inhibition of CDK6/Cyclin D2 (unknown origin)", "format": "protein-complex assay"}, "Bos taurus [10]": {"species": "Bos taurus", "test": "Inhibition of Interleukin-1- stimulated iNOS gene expression in bovine articular cartilage", "format": "functional", "settings": "Cartilage tissue"}, "[11]": {"biological_target": "Proto-oncogene tyrosine-protein kinase Src (Homo sapiens, UniProt P12931)", "test": "Inhibition of c-Src (unknown origin)"}, "[12]": {"biological_target": "DNA topoisomerase 2-alpha (Homo sapiens, UniProt P11388)", "test": "Inhibition of topoisomerase 2 alpha (unknown origin)"}, "KB 3-1": {"system": "KB 3-1", "test": "Cytotoxicity against human KB-3-1 cells by MTT assay", "format": "functional, cell-based"}, "DNA topoisomerase 1": {"biological_target": "DNA topoisomerase 1 (Homo sapiens, UniProt P11387)", "sequence (P11387 whole entry)": "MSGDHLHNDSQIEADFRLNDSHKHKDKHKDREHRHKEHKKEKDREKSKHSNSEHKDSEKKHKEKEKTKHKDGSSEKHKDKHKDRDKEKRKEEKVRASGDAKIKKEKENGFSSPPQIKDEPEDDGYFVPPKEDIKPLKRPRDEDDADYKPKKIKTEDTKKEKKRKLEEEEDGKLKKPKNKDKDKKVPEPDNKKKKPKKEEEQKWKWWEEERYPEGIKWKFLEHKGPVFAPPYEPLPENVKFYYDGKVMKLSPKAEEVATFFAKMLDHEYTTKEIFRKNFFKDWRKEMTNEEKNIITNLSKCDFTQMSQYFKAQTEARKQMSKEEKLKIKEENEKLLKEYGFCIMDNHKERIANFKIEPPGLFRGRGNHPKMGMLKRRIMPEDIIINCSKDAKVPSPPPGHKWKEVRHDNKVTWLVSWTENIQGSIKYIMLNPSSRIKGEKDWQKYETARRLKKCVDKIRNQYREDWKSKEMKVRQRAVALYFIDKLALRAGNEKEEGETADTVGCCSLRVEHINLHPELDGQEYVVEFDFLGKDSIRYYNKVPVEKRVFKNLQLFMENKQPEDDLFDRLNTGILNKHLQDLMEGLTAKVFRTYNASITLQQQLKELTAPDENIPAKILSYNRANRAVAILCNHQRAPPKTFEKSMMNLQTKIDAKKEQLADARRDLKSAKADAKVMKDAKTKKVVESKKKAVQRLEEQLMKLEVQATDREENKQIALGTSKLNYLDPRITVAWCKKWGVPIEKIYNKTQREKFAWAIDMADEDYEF", "test": "Inhibition of topoisomerase 1 (unknown origin)"}, "Mus musculus [13]": {"species": "Mus musculus", "test": "Neuroprotective activity in Swiss mouse cortical neurons assessed as increase in cell viability in presence of H2O2 at 10 nM relative to control", "format": "functional"}, "THP-1 [14]": {"system": "THP-1", "test": "Antiinflammatory activity in human THP-1 cells assessed as inhibition of LPS-stimulated TNFalpha production", "format": "functional, cell-based"}, "[15]": {"test": "Inhibition of cAMP-dependent protein kinase (unknown origin)", "design": "species or system Homo sapiens"}, "[16]": {"biological_target": "Cyclin-dependent kinase 4/cyclin D1 (Homo sapiens, UniProt P11802)", "test": "Inhibition of CDK4/Cyclin D1 (unknown origin)", "format": "protein-complex assay"}, "CDK1/Cyclin E": {"biological_target": "CDK1/Cyclin E (Homo sapiens, UniProt P06493)", "sequence (P06493 whole entry)": "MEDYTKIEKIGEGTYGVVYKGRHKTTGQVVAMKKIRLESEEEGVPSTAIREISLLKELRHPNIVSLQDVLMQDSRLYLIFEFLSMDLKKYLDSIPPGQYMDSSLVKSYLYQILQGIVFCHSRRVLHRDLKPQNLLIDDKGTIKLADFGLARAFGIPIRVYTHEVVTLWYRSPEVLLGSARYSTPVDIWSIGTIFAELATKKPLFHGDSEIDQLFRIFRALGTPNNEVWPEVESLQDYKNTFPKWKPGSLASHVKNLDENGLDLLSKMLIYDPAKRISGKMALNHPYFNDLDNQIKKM", "sequence (P24864 whole entry, further chain)": "as the sequence (P24864 whole entry) above", "test": "Inhibition of CDK1/Cyclin E (unknown origin)", "format": "protein-complex assay"}, "[17]": {"biological_target": "Human immunodeficiency virus type 1 reverse transcriptase (Human immunodeficiency virus 1) (UniProt Q72547)", "test": "Inhibition of HIV1 Reverse transcriptase at 25 uM relative to control"}, "THP-1 [18]": {"system": "THP-1", "test": "Antiinflammatory activity in human THP-1 cells assessed as inhibition of LPS-stimulated IL2 production", "format": "functional, cell-based"}, "[19]": {"test": "Inhibition of IL-1 stimulated PGE2 production in human rheumatoid synovial fibroblasts", "format": "functional, cell-based", "settings": "Fibroblast"}, "Bos taurus [20]": {"species": "Bos taurus", "test": "Inhibition of Interleukin-1- stimulated proteoglycan degradation in bovine articular cartilage", "format": "functional", "settings": "Cartilage tissue"}, "[21]": {"biological_target": "Tyrosine-protein kinase ABL1 (Homo sapiens, UniProt P00519)", "sequence (P00519 whole entry)": "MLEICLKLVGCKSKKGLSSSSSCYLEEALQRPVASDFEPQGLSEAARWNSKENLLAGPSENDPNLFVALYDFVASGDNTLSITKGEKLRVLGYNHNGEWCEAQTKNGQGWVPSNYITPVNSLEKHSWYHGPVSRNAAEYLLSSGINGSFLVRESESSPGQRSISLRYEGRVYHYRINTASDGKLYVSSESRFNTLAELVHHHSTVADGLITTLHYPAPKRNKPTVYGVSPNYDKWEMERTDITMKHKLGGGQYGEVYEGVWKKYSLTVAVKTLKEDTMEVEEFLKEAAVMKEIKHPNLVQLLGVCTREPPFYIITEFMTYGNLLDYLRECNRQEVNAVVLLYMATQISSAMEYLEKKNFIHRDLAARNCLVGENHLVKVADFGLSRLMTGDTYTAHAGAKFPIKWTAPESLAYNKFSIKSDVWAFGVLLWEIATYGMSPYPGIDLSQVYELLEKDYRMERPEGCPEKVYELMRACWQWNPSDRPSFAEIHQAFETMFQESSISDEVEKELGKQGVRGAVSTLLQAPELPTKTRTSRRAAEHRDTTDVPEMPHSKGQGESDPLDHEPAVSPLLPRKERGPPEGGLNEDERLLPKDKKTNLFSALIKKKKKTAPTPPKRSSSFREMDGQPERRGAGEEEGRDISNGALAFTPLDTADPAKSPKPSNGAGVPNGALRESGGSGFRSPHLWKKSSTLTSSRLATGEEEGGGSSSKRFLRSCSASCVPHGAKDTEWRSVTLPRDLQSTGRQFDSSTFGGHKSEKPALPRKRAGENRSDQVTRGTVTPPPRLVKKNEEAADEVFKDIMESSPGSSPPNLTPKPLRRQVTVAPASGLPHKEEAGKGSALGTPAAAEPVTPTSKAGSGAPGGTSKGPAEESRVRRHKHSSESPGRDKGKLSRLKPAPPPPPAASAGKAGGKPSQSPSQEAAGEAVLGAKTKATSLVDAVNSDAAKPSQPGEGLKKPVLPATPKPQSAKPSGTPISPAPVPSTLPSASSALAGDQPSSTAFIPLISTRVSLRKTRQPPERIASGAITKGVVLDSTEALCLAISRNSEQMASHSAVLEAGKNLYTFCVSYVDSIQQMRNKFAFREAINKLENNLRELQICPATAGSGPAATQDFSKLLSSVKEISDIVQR", "test": "Inhibition of c-abl (unknown origin)"}, "A549": {"system": "A549", "test": "Cytotoxicity against human A549 cells by MTT assay", "format": "functional, cell-based"}, "Rattus norvegicus [22]": {"system": "Rattus norvegicus", "test": "Hypotensive effect in rat vascular smooth muscles assessed as reduction in arterial blood pressure at 5 mg/kg measured after 15 mins", "format": "functional", "settings": "Smooth muscle tissue, 0.25 h"}, "Mus musculus [23]": {"species": "Mus musculus", "test": "Neuroprotective activity in Swiss mouse cortical neurons assessed as increase in cell viability in presence of H2O2 at 1 nM relative to control", "format": "functional"}, "MCF7": {"system": "MCF7", "test": "Growth inhibition of human MCF7 cells at 1 uM by MTT assay relative to control", "format": "functional", "settings": "read-out: GI"}}}
{"smiles": "O=C1NC(=O)/C(=C2/CCNC(=O)c3[nH]c(Br)cc32)N1", "values": [{"measurement": "EC50", "setting": "P388", "value": 18, "unit": "mg/L"}]}
{"smiles": "O=C1NCCc2ccccc2-c2c1[nH]c1ccccc21", "values": [{"measurement": "IC50", "setting": "HepG2", "value": 0.46, "unit": "µM"}, {"measurement": "IC50", "setting": "Tubulin", "value": 7.7, "unit": "µM"}, {"measurement": "IC50", "setting": "MOLT-3", "value": 0.009, "unit": "µM"}]}
{"smiles": "NC1=N/C(=C2/CCNC(=O)c3[nH]ccc32)C(=O)N1", "note": "[DEBROMOHYMENIALDISINE]", "values": [{"measurement": "inhibition in vivo at 20 mg/kg", "setting": "Rattus norvegicus [1]", "value": "> 60", "unit": "%"}, {"measurement": "IC50", "setting": "[2]", "value": 0.82, "unit": "µM"}, {"measurement": "IC50", "setting": "Protein kinase C (PKC)", "value": "< 10", "unit": "µM"}, {"measurement": "inhibition in vivo at 10 mg/kg", "setting": "Rattus norvegicus [3]", "value": 63, "unit": "%"}, {"measurement": "EC50", "setting": "L5178Y", "value": 1.8, "unit": "mg/L"}, {"measurement": "IC50", "setting": "[4]", "value": 0.112, "unit": "µM"}, {"measurement": "IC50", "setting": "[5]", "value": 0.25, "unit": "µM"}, {"measurement": "Ratio IC50", "setting": "Homo sapiens", "value": 4}]}
{"smiles": "NC1=NC(=O)/C(=C2\\CCNC(=O)c3[nH]c(Br)cc32)N1", "note": "[HYMENIALDISINE]", "values": [{"measurement": "IC50", "setting": "[6]", "value": 1.2, "unit": "µM"}, {"measurement": "IC50", "setting": "[7]", "value": 0.47, "unit": "µM"}, {"measurement": "inhibition at 3.1 µM", "setting": "[8]", "value": 30, "unit": "%"}, {"measurement": "IC50", "setting": "CDK3/Cyclin E", "value": 0.1, "unit": "µM"}, {"measurement": "IC50", "setting": "[9]", "value": 1.7, "unit": "µM"}, {"measurement": "IC50", "setting": "Casein kinase I", "value": 0.035, "unit": "µM"}, {"measurement": "IC50", "setting": "Casein kinase 2", "value": 7, "unit": "µM"}, {"measurement": "IC50", "setting": "CDK6/cyclin D2", "value": 0.7, "unit": "µM"}, {"measurement": "IC50", "setting": "Bos taurus [10]", "value": 0.8, "unit": "µM"}, {"measurement": "IC50", "setting": "[11]", "value": 7, "unit": "µM"}, {"measurement": "IC50", "setting": "[12]", "value": 10, "unit": "µM"}, {"measurement": "IC50", "setting": "KB 3-1", "value": 3.1, "unit": "µM"}, {"measurement": "IC50", "setting": "DNA topoisomerase 1", "value": 10, "unit": "µM"}, {"measurement": "EC50", "setting": "L5178Y", "value": 3.5, "unit": "mg/L"}, {"measurement": "Activity", "setting": "Mus musculus [13]", "value": 120, "unit": "%"}, {"measurement": "IC50", "setting": "THP-1 [14]", "value": 1.4, "unit": "µM"}, {"measurement": "IC50", "setting": "[15]", "value": 8, "unit": "µM"}, {"measurement": "IC50", "setting": "[4]", "value": 0.025, "unit": "µM"}, {"measurement": "IC50", "setting": "[16]", "value": 0.6, "unit": "µM"}, {"measurement": "IC50", "setting": "CDK1/Cyclin E", "value": 0.04, "unit": "µM"}, {"measurement": "inhibition", "setting": "[17]", "value": 90, "unit": "%"}, {"measurement": "IC50", "setting": "THP-1 [18]", "value": 2.4, "unit": "µM"}, {"measurement": "IC50", "setting": "[19]", "value": 0.6, "unit": "µM"}, {"measurement": "IC50", "setting": "Bos taurus [20]", "value": 0.6, "unit": "µM"}, {"measurement": "IC50", "setting": "[21]", "value": 4, "unit": "µM"}]}
{"smiles": "Cc1ccc2[nH]c3c(c2c1)CNC(=O)c1[nH]c2ccccc2c1-3", "values": [{"measurement": "IC50", "setting": "A549", "value": 4.2, "unit": "µM"}]}
{"smiles": "Nc1nc(C2CCNC(=O)c3[nH]c(Br)c(Br)c32)c[nH]1", "note": "(stereo unspecified)", "values": [{"measurement": "inhibition in vivo at 5 mg/kg", "setting": "Rattus norvegicus [22]", "value": 90, "unit": "%"}, {"measurement": "Activity", "setting": "Mus musculus [23]", "value": 120, "unit": "%"}]}
{"smiles": "O=C1NCc2ccccc2-c2c1sc1ccccc21", "values": [{"measurement": "inhibition of growth at 1 µM", "setting": "MCF7", "value": 17, "unit": "%"}]}
